Article PMC12592418, “Therapeutic potential of red bean (phaseolus vulgaris) peptides: anticancer, antihypertension, and antioxidant activities” (Scientific Reports, 2025)
No end group written: not given here.

Assays:
[1] = FRAP ferric ion-reducing antioxidant power assay; type: physicochemical; conditions: peptide 100 µg/ml, 30 min in the dark, absorbance 593 nm, mean ± SD, n = 3
Protocol: The ferric ion-reducing antioxidant power assay was analyzed according to the method by Rumpf et al.[47] with minor modifications. Briefly, the FRAP reagent was prepared from 300 mM sodium acetate (pH 3.6) and 10 mM TPTZ (2,4,6-tris (2-pyridyl)-s-triazine) in 40 mM HCl and 20 mM ferric chloride at the ratio of 10:1:1, respectively. Then, a 10 µL aliquot of the sample or standard was mixed with 190 µL of the FRAP reagent before incubating in the dark for 30 min. The absorbance was measured at 593 nm using a microplate reader (Rayto RT-2100 C, China). Ascorbic acid was used as the standard. Results were expressed as micrograms of ascorbic acid equivalent per gram (µg AAE g^−1).

[2] = system: Vero cells; assay: MTT cell viability assay, Vero; type: cell-based, monkey; conditions: synthetic peptide 100 µg/ml, 24 h, mean ± SD, n = 3
Protocol: (§1) CaCO2, HepG2, MCF-7, NCI-H460, SiHa, SW620, and Vero cells were obtained from the American Type Culture Collection (ATCC, Manassas, VA, USA). Cells were cultured in Dulbecco’s Modified Eagle’s Medium (DMEM; PAA, Pasching, Austria), supplemented with 10% (v/v) fetal bovine serum (Gibco, South America), 10 mM HEPES (HyClone, Utah, USA), 2 mM L-glutamine, and 100 U/mL penicillin and 100 µg/mL streptomycin. Cultures were maintained at 37 °C in a humidified atmosphere containing 5% CO₂.
(§2) The anticancer activity of protein hydrolysates and synthetic peptides against CaCO2, HepG2, MCF-7, NCI-H460, SiHa, SW620, and Vero cells were evaluated using the MTT assay. Cells were seeded into 96-well plates (Nunc™, Roskilde, Denmark) at a density of 2 × 10⁴ cells per well, and allowed to adhere. Following seeding, cells were treated with 100 µg/mL of protein hydrolysates or synthetic peptides for 24 h, while untreated cells served as controls. After 24 h, 20 µL of MTT solution (5 mg/mL; Sigma, St. Louis, MO, USA) was added to each well and incubated for an additional 3 h. The supernatant was then removed, and 100 µL of DMSO was added to each well to dissolve the formazan crystals. Optical density (OD) was measured at 540 nm using a microplate reader (Rayto RT-2100 C, China). Cell viability was calculated using the equation: (OD of treated cells/OD of untreated cells) × 100.
(§3) The IC50 values were calculated from a fitted semi-log response curve, plotting cell viability percentages against concentration. These values were determined using the AAT-Bioquest IC50 calculator (https://www.aatbio.com/tools/ic50-calculator).

[3] = system: SW620 cells; assay: MTT cell viability assay, SW620; type: cell-based, human; conditions: synthetic peptide 100 µg/ml, 24 h, mean ± SD
Protocol: as §1, §2, §3

[4] = DPPH radical scavenging assay; type: physicochemical; conditions: peptide 100 µg/ml, 0.1 mM DPPH, 30 min in the dark, room temperature, absorbance 517 nm, mean ± SD, n = 3
Protocol: The DPPH radical scavenging activity of the sample was evaluated following the protocol by Muangrod et al.[48] with slight modifications. Briefly, 190 µL of 0.1 mM DPPH was mixed with 10 µL of the sample or standard ascorbic acid in each well and incubated at room temperature in the dark for 30 min. The absorbance of the mixture was measured at 517 nm using a microplate reader (Rayto RT-2100 C, China). Ascorbic acid was used as the standard. Results were expressed as micrograms ascorbic acid equivalent (µg AAE g^−1).

[5] = system: NCI-H460 cells; assay: MTT cell viability assay, NCI-H460; type: cell-based, human; conditions: synthetic peptide 100 µg/ml, 24 h, mean ± SD
Protocol: as §1, §2, §3

[6] = system: angiotensin-converting enzyme (ACE); assay: ACE inhibitory activity assay (HHL substrate); type: biochemical; conditions: peptide 100 µg/ml, ACE 0.2 U/mL, 5 mM HHL, phosphate buffer pH 6.8, 37 °C, mean ± SD, n = 3
Protocol: The method utilized here is a spectrophotometric method based on the commonly used method introduced by Cushman and Cheung (1971)[45]. The 5 ul of sample was preincubated with 45 ul of ACE enzyme (0.2 U/mL) in 100 mM Phosphate buffer (pH 6.8) and incubated for 10 min at 37 °C. Enzyme activity was assayed by monitoring the hydrolysis of hippuryl-L-histidyl-L-leucine (HHL). After adding 50 µL of a 5 mM HHL substrate solution, the increase in absorbance at 405 nm was measured every minute for 15 min at 37 °C using a 96-well microplate reader. The initial velocity was determined from the linear portion of the curve, and the inhibitory activity was expressed as a percentage calculated using the following equation:
% inhibition = (1-(B-b)/(A-a)) x 100,
where A is an initial velocity of the control reaction with enzyme (control), a is an initial velocity of the control reaction without enzyme (control blank), B is an initial velocity of the enzyme reaction with sample and b is an initial velocity of the reaction with sample but without enzyme (sample blank).

[7] = ABTS radical scavenging assay; type: physicochemical; conditions: peptide 100 µg/ml, 5 min in the dark, absorbance 750 nm, mean ± SD, n = 3
Protocol: Radical scavenging antioxidant activity was determined according to the ABTS radical scavenging activity following the method described by Re et al.[46] with slight modifications. Briefly, the solution of ABTS radical was prepared from the reaction between 7 mM ABTS (2,2-azino-bis (3-ethylbenzothiazoline-6-sulphonic acid) diammonium salt) and 2.45 mM ammonium persulphate. The resulting ABTS solution was diluted with distilled water to achieve an optical density of 0.7 at 750 nm. Then, a sample or standard of 10 µL was mixed with 190 µL of ABTS solution and incubated for 5 min in the dark. The absorbance was measured at 750 nm by a microplate reader (Rayto RT-2100 C, China). Ascorbic acid was used as the standard.

[8] = system: MCF-7 cells; assay: MTT cell viability assay, MCF-7; type: cell-based, human; conditions: synthetic peptide 100 µg/ml, 24 h, mean ± SD
Protocol: as §1, §2, §3

[9] = system: CaCO2 cells; assay: MTT cell viability assay, CaCO2; type: cell-based, human; conditions: synthetic peptide 100 µg/ml, 24 h, mean ± SD, n = 3
Protocol: as §1, §2, §3

[10] = system: SiHa cells; assay: MTT cell viability assay, SiHa; type: cell-based, human; conditions: synthetic peptide 100 µg/ml, 24 h, mean ± SD, n = 3
Protocol: as §1, §2, §3

[11] = system: HepG2 cells; assay: MTT cell viability assay, HepG2; type: cell-based, human; conditions: synthetic peptide 100 µg/ml, 24 h, mean ± SD, n = 3
Protocol: as §1, §2, §3

[12] = target: T1, angiotensin-converting enzyme (ACE) (UniProt P12822)
T1 sequence (P12822 whole entry, species assumed, looked up): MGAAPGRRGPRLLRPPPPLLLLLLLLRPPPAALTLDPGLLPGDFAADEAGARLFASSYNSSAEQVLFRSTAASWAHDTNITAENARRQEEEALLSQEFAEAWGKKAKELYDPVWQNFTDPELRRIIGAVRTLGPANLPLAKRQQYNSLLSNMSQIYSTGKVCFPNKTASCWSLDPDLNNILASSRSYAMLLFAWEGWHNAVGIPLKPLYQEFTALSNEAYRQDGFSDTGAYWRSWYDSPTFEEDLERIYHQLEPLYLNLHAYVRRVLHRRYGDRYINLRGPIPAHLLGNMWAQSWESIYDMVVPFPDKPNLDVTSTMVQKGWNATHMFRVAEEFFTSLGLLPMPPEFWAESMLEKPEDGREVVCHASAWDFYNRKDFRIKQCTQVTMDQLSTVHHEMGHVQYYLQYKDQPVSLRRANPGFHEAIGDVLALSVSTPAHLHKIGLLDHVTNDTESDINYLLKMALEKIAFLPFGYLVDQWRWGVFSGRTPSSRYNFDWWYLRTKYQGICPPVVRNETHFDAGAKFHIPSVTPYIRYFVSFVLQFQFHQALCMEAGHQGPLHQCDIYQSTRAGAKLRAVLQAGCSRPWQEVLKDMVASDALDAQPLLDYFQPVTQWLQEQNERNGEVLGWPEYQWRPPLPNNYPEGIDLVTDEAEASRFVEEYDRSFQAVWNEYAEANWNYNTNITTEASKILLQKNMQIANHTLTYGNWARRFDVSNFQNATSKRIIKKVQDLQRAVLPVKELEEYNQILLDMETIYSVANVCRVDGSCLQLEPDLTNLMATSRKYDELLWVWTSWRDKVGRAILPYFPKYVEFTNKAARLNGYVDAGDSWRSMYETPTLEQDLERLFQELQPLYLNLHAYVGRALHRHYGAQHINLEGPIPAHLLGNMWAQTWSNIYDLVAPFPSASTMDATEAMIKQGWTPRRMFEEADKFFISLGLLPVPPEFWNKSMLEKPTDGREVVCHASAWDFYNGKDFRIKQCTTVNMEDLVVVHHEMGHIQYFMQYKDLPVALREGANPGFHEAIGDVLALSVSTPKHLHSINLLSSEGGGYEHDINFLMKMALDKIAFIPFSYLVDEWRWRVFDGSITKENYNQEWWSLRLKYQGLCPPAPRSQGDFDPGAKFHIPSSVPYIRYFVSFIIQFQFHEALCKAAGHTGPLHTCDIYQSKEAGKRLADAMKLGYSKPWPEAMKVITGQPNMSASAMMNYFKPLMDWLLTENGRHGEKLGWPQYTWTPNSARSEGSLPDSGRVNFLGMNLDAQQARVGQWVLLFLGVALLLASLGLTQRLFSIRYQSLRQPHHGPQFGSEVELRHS

| Molecule | Antioxidant, FRAP [1] | Inhibitory percentage, Vero [2] [%] | Antioxidant, DPPH [4] | Antioxidant, ABTS [7] | Inhibitory percentage, CaCO2 [9] [%] | Inhibitory percentage, SiHa [10] [%] | Inhibitory percentage, HepG2 [11] [%] | Antihypertension (%): percent inhibition of ACE activity (hydrolysis of hippuryl-L-histidyl-L-leucine) at 100 µg/ml peptide [12] [%] | further results |
| --- | --- | --- | --- | --- | --- | --- | --- | --- | --- |
| RRLRILL [RB-6] | 120.46±0.07 µg ascorbic acid equivalent | 0 | 584.66±4.15 µg ascorbic acid equivalent | 595.33±18.41 µg ascorbic acid equivalent | 19.32±0.18 | 9.72±0.02 | 0 | – | Inhibitory percentage, SW620 ([3]; n = 3): 0%; Inhibitory percentage, NCI-H460 ([5]; n = 3): 0%; Antihypertension (%), percentage inhibition of ACE ([6]; SD): 46.67±0.36%; Inhibitory percentage, MCF-7 ([8]; n = 3): 0% |
| DHPTGGL [RB-2] | 59.87±0.06 µg ascorbic acid equivalent | 0 | 239.10±0.83 µg ascorbic acid equivalent | 284.62±0.75 µg ascorbic acid equivalent | 8.99±0.08 | 10.28±0.02 | 0 | – | Inhibitory percentage, SW620 ([3]; n = 3): 0%; Inhibitory percentage, NCI-H460 ([5]; n = 3): 0%; Antihypertension (%), percentage inhibition of ACE [6]: 0%; Inhibitory percentage, MCF-7 ([8]; n = 3): 0% |
| LIIPATSTKFL [RB-8] | – | – | – | – | 20.79±1.23 | – | – | – | – |
| APANGSAF [RB-5] | 87.48±0.20 µg ascorbic acid equivalent | 0 | 374.62±13.56 µg ascorbic acid equivalent | 412.60±0.71 µg ascorbic acid equivalent | 13.21±0.04 | 8.75±0.00 | 0 | – | Inhibitory percentage, SW620 ([3]; n = 3, SD): 3.58±0.04%; Inhibitory percentage, NCI-H460 ([5]; n = 3, SD): 10.58±0.03%; Antihypertension (%), percentage inhibition of ACE ([6]; SD): 43.33±0.33%; Inhibitory percentage, MCF-7 ([8]; n = 3): 0% |
| NLRKLKRL [RB-1] | 189.53±6.59 µg ascorbic acid equivalent | 0 | 373.74±12.01 µg ascorbic acid equivalent | 367.86±25.39 µg ascorbic acid equivalent | 7.33±0.02 | 4.64±0.02 | 0 | – | Inhibitory percentage, SW620 ([3]; n = 3): 0%; Inhibitory percentage, NCI-H460 ([5]; n = 3, SD): 5.40±0.01%; Antihypertension (%), percentage inhibition of ACE ([6]; SD): 20.00±2.82%; Inhibitory percentage, MCF-7 ([8]; n = 3, SD): 2.10±0.00% |
| APANGSAF [RB-5] | – | – | – | – | – | – | – | 43.3 | – |
| DHPTGGL [RB-2] | – | – | – | – | – | – | – | 0 | – |
| RRLRILL [RB-6] | – | – | – | – | – | – | – | 46.7 | – |
| RGSKQRQKRQW [RB-7] | – | – | – | – | – | – | – | 60 | – |
| NLRKLKRL [RB-1] | – | – | – | – | – | – | – | 20 | – |
| GSEIRSTSDDVL [RB-4] | – | – | – | – | – | – | – | 13.3 | – |
| SPTPPKNVPF [RB-3] | – | – | – | – | – | – | – | 20 | – |
| LIIPATSTKFL [RB-8] | – | – | – | – | – | – | – | 16.7 | – |
